Experimental findings from patent US11607464B2, “Compositions and methods for the treatment and imaging of cancer” (BOARD OF REGENTS OF THE UNIVERSITY OF NEBRASKA, priority 2018, dated 2023) are described below.

For series [1], the system named is BE(2)-C neuroblastoma cells. Briefly: Cell survival with drug without and with ionizing radiation (XRT). The format is cell-based, human. The method, then:
(§1) Alongside all treatment groups, which included: drug alone (n=4), 4 Gy XRT alone (n=4), and drug+XRT (n=4), quadruplicate flasks of controls cells in medium containing DMSO were grown and harvested under identical culture conditions. Each treatment was tested in at least two independent experiments. The final concentration of DMSO was maintained at 0.5% in all flasks including controls. Cells grown in monolayers (50%-60% confluent) were irradiated at the dose of 4 Gy delivered at the dose rate of 1.36 Gy/minute in a Mark I 68A irradiator (J. L. Shepherd & Associates, San Fernando, Calif.). At designated times after treatment, cells were harvested, their numbers determined and plated at 200 and 500 live cells in duplicate or quadruplicate T25 flasks per each treatment. Cells were left undisturbed for ˜7 days after which time fresh medium was added and colonies were allowed to grow for up to 3 weeks. Colonies were washed with PBS, fixed with methanol, and stained with crystal violet. Briefly, colonies were washed with 5 mL ice-cold PBS, followed by 5 mL PBS/methanol (1:1; v/v), and fixed in 5 mL methanol for 10 minutes. Methanol was removed and flasks were left open to dry for a few hours. Crystal violet (3 mL; 0.25% in 1:1 PBS/methanol) was added to each flask to stain cells. After approximately 10 minutes, the dye was removed, flasks were rinsed with tap water followed by distilled water and were left to dry. Colonies were counted by two independent observers using the ImageJ software.

A further series concerns BE(2)-C. The experiment in a line: Cell survival and LD50 determination (trypan blue exclusion). The format is cell-based, human. To be noted: value (std err). The method, then:
(§2) The final concentration of DMSO was maintained at ≤0.5% in all flasks including controls. With each treatment group, duplicate flasks of control cells were grown and harvested alongside treated cells. Each treatment was tested in duplicate in at least two independent experiments (n=4-6 per concentration). Cell numbers were determined after 1 hour, 24 hours, and 48 hours of exposure to drugs using the trypan blue exclusion assay. Aliquots of cell suspension were mixed with a 0.2% solution of trypan blue in PBS (1/1; v/v) and counted in Cellometer® (Nexcelom Bioscience, Lawrence, Mass.). […] The reproductive integrity was also evaluated using a clonogenic survival assay.

For the next series, the system named is SK-N-SH. Described as above. To be noted: value (std err). The class given is cell-based, human. The method, then: as §2
The next series has as its system BE(2)-C cells. The experiment in a line: Clonogenic survival (reproductive integrity) with drug without and with XRT. The format is cell-based, human. The method, then: as §1
In another series the test system is U-87 MG. Briefly: Cell survival and LD50 determination (trypan blue exclusion). The format is cell-based, human. To be noted: value (std err). The method, then: as §2, with “Compounds 1 or 2 dissolved in DMSO were added to the appropriate cell culture medium in concentrations ranging from 0 μM to 1.5 μM. Higher concentrations were not evaluated as the amount of DMSO required to maintain the drugs' solubility was not compatible with good cell culture conditions. The final” for “The final”
(§3) Results Cell survival and LD50 determination for compounds 1 and 2 on four human cancer cell lines—BE(2)-C(neuroblastoma), SK-N-SH cells (neuroblastoma), U-87 MG (glioblastoma), and U137 MG.

For the next series, the system named is U137 MG. Described as above. The class given is cell-based, human. To be noted: value (std err). The method, then: as §2, with “Compounds 1 or 2 dissolved in DMSO were added to the appropriate cell culture medium in concentrations ranging from 0 μM to 1.5 μM. Higher concentrations were not evaluated as the amount of DMSO required to maintain the drugs' solubility was not compatible with good cell culture conditions. The final” for “The final”
as §3

Series [2] in a line: Solubility in common solvents. The format is physicochemical.
The test system of series [3] is human glioblastoma cells lines. Briefly: Cytotoxicity of the nonradioactive analogue. The format is cell-based. The method, then: (§4) Cytotoxicity and radiosensitizing properties of the nonradioactive analogue were determined. Specifically, the cytotoxicity of the nonradioactive analogue N-[5-(3′-iodobenzoyl)-1H-benzimidazol-2-yl]carbamate was measured.
The test system of series [4] is human neuroblastoma cell lines. Briefly: Cytotoxicity of the nonradioactive analogue. The class given is cell-based. The method, then:
as §4

Regarding `COC(=O)Nc1nc2cc(C(=O)c3cccc(I)c3)ccc2[nH]1` [Compound 2, Methyl N [5-(3′-iodobenzoyl)-1H-benzimidazol-2-yl]carbamate], the cancer cells surviving in series [1] (1 micromolar combined with 4 Gy ionizing radiation (XRT)) is 4.8%. In addition, in [1] (1 micromolar, 24 hour exposure), the cancer cells killed came out at 89.8%. Besides, in series [1] (SK-N-SH and BE(2)-C cells, 1 μM, without and with XRT, 24 hours after treatment, FIG. 8A), the “surviving fractions, cytotoxicity” value was “very cytotoxic to the cancer cells, particularly in combination with irradiation”. Besides, the LD50 in the series with BE(2)-C is given as 0.02 (0.01) uM; in the series with SK-N-SH, 1.29 (0.24) uM; in the series with U-87 MG it was 0.20 (0.06) uM; in the series on U137 MG it was 2.62 (1.35) uM. The “clonogenic survival, cytotoxicity” value with BE(2)-C cells (BE(2)-C, 1 μM for 24 hours, without and with 4 Gy, FIGS. 8B and 8C) was “very cytotoxic to the cancer cells, particularly in combination with irradiation”. Moreover, the “cells surviving, reproductive integrity assay” value with BE(2)-C cells (combined treatment of 4 Gy XRT and drug) is given as less than 0.9%; in the series on BE(2)-C cells (drug alone), 7.8%. Further, the “solubility in common solvents” value in series [2] is “quite low solubility”. Moreover, the cytotoxicity entry in series [3] was “micromolar range”; in series [4] it was “low nM range”.
